Type in all cases: biochemical
One test addresses T1, CDK1/CycB (Homo sapiens, UniProt P06493).
T1 construct: GST; purchased ProQinase GmbH, Freiburg; host or cells: baculovirus-infected insect cells (Sf9)
Put plainly: CDK1/CycB kinase assay. To be noted: 0.5 μM ATP. How it is done:
Recombinant CDK1- and CycB-GST fusion proteins, purified from baculovirus-infected insect cells (Sf9), were purchased from ProQinase GmbH, Freiburg. The histone IIIS used as kinase substrate can be purchased from Sigma.
CDK1/CycB (5 ng/μL) was incubated in the presence of various concentrations of test substances (0 μM, and within the range 0.01-100 μM) in 40 μL of assay buffer [50 mM Tris/HCl pH 8.0, 10 mM MgCl2, 0.1 mM Na ortho-vanadate, 1.0 mM dithiothreitol, 0.025% PEG 20000, 0.5 μM ATP, 10 μM histone IIIS, 0.2 μCi/measurement point ^33P-gamma ATP, 0.05% NP40, 1.25% dimethyl sulphoxide] at 22° C. for 10 min. The reaction was stopped by adding EDTA solution (250 mM, pH 8.0, 15 μl/measurement point). 15 μl of each reaction mixture were loaded onto P30 filter strips (from Wallac), and non-incorporated ^33P-ATP was removed by washing the filter strips three times in 0.5% strength phosphoric acid for 10 min each time. After the filter strips had been dried at 70° C. for 1 hour, the filter strips were covered with scintillator strips (MeltiLex™ A, from Wallac) and baked at 90° C. for 1 hour. The amount of incorporated ^33P (substrate phosphorylation) was determined by scintillation measurement in a gamma radiation counter (Wallac).
(§1) The measured data were normalized to 0% inhibition (enzyme reaction without inhibitor) and 100% inhibition (all assay components except enzyme). The IC50 values were determined by means of a 4-parameter fit using the company's own software.

The target of another test is T2, CDK2/CycE (Homo sapiens, UniProt P24941).
T2 construct: GST; purchased ProQinase GmbH, Freiburg; host or cells: baculovirus-infected insect cells (Sf9)
The test is described as follows: CDK2/CycE kinase assay. To be noted: 0.5 μM ATP. How it is done:
Recombinant CDK2- and CycE-GST fusion proteins, purified from baculovirus-infected insect cells (Sf9), were purchased from ProQinase GmbH, Freiburg. The histone IIIS used as kinase substrate was purchased from Sigma. CDK2/CycE (1.25 ng/μL) was incubated in the presence of various concentrations of test substances (0 μM, and within the range 0.01-100 μM) in 40 μL of assay buffer [50 mM Tris/HCl pH 8.0, 10 mM MgCl2, 0.1 mM Na ortho-vanadate, 1.0 mM dithiothreitol, 0.5 μM ATP, 0.2% PEG20000, 10 μM histone IIIS, 0.2 μCi/measurement point ^33P-gamma ATP, 0.05% NP40, 1.25% dimethyl sulphoxide] at 22° C. for 10 min. The reaction was stopped by adding EDTA solution (250 mM, pH 8.0, 15 μl/measurement point).
15 μl of each reaction mixture were loaded onto P30 filter strips (from Wallac), and non-incorporated ^33P-ATP was removed by washing the filter strips three times in 0.5% strength phosphoric acid for 10 min each time.
After the filter strips had been dried at 70° C. for 1 hour, the filter strips were covered with scintillator strips (MeltiLex™ A, from Wallac) and baked at 90° C. for 1 hour. The amount of incorporated ^33P (substrate phosphorylation) was determined by scintillation measurement in a gamma radiation counter (Wallac).
as §1

Test [1] deals with Aurora C, CDK1/CycB, CDK2/CycE, KDR (VEGFR2). Put plainly: various kinase assays taken together (selectivity profile). Particulars: comparison across the kinase assays, in words. As to the method:
The compounds of Examples 1 to 22 were tested for their inhibitory effect in the various kinase assays and in a proliferation assay with MCF7 human breast tumour cells (Tab. 1). […] Exemplary compounds 1-8, 10-12, 15, 17-20 inhibit the proliferation of human MCF7 breast tumour cells with half-maximum concentrations in the submicromolar range.

T1 sequence (P06493 whole entry): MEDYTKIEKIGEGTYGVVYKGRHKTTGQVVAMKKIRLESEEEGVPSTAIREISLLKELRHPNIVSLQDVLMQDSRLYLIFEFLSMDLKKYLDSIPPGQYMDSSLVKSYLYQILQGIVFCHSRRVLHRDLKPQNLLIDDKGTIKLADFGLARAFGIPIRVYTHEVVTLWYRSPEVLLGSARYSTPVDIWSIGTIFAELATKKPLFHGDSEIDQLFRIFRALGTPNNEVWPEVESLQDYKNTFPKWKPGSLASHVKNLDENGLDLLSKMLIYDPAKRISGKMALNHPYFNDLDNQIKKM
T1 sequence (P14635 whole entry partner): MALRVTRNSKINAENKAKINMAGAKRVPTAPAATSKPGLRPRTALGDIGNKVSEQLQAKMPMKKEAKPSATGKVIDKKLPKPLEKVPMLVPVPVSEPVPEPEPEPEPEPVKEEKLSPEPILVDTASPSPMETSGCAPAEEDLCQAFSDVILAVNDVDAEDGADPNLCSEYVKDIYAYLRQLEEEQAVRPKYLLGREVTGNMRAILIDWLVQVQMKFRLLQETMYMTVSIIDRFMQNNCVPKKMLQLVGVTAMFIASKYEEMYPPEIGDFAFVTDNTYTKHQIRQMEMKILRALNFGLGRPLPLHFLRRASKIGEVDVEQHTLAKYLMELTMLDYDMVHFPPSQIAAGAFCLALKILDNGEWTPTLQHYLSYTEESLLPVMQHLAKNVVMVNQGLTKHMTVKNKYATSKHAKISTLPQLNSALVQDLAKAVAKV

As to `C[C@@H](O)[C@@H](C)Oc1nc(Nc2ccc(NC(=O)N=S(C)(C)=O)cc2)ncc1Br` [Example 4, N-({4-[(5-Bromo-4-{[(1R,2R)-2-hydroxy-1-methylpropyl]oxy}pyrimidin-2-yl)amino]phenyl}carbamoyl)-S,S-dimethylsulphoximide], the IC50 against CDK1/CycB and against CDK2/CycE was 5 nM in each case.
With `C[C@@H](O)[C@@H](C)Nc1nc(Nc2cccc(C(=O)N=S(C)(C)=O)c2)ncc1Br` [Example 17, N-{3-[(5-Bromo-4-{[(1R,2R)-2-hydroxy-1-methylpropyl]amino}pyrimidin-2-yl)amino]benzoyl}-S,S-dimethylsulphoximide], the selectivity profile entry in test [1] was “CDK-selective”. Besides, the IC50 is 10 nM against CDK1/CycB and 9 nM on CDK2/CycE.
Turning to `C[C@@H](O)[C@@H](C)Nc1nc(Nc2ccc(C(=O)N=S(C)(C)=O)cc2)ncc1Br` [Example 18, N-{4-[(5-Bromo-4-{[(1R,2R)-2-hydroxy-1-methylpropyl]amino}pyrimidin-2-yl)amino]benzoyl}-S,S-dimethylsulphoximide], the IC50 on CDK1/CycB turned out to be 18 nM; at CDK2/CycE, 9 nM.
For `C[C@@H](O)[C@@H](C)Nc1nc(Nc2cccc(NC(=O)N=S(C)(C)=O)c2)ncc1Br` [Example 5, N-({3-[(5-Bromo-4-{[(1R,2R)-2-hydroxy-1-methylpropyl]amino}pyrimidin-2-yl)amino]phenyl}carbamoyl)-S,S-dimethylsulphoximide], the figures for the IC50 at CDK1/CycB and against CDK2/CycE were 10 nM and 5 nM, respectively.
As for `C[C@@H](O)[C@@H](C)Nc1nc(Nc2ccc(Cl)c(NC(=O)N=S(C)(C)=O)c2)ncc1Br` [Example 12, N-({5-[(5-Bromo-4-{[(1R,2R)-2-hydroxy-1-methylpropyl]amino}pyrimidin-2-yl)amino]-2-chlorophenyl}carbamoyl)-S,S-dimethylsulphoximide], the figures for the IC50 at CDK1/CycB and at CDK2/CycE were 18 nM and 9 nM, respectively.
Take `C[C@@H](O)[C@@H](C)Oc1nc(Nc2cccc(NC(=O)N=S(C)(C)=O)c2)ncc1Br` [Example 6, N-({3-[(5-Bromo-4-{[(1R,2R)-2-hydroxy-1-methylpropyl]oxy}pyrimidin-2-yl)amino]phenyl}carbamoyl)-S,S-dimethylsulphoximide]: the IC50 against CDK1/CycB and against CDK2/CycE was 7 nM each time.
`C[C@@H](O)[C@@H](C)Nc1nc(Nc2ccc(NC(=O)N=S(C)(C)=O)cc2)ncc1C(F)(F)F` [Example 15]: in test [1], the selectivity profile entry is on record as “CDK-selective”. Moreover, the figures for the IC50 against CDK1/CycB and at CDK2/CycE were 15 nM and 9 nM, respectively.
Turning to `Cc1ccc(Nc2ncc(Br)c(N[C@H](C)[C@@H](C)O)n2)cc1NC(=O)N=S(C)(C)=O` [Example 8, N-({5-[(5-Bromo-4-{[(1R,2R)-2-hydroxy-1-methylpropyl]amino}pyrimidin-2-yl)amino]-2-methylphenyl}carbamoyl)-S,S-dimethylsulphoximide], the 50% inhibitory concentration (IC50) at CDK1/CycB is 21 nM; against CDK2/CycE it was 12 nM.
Consider `CS(C)(=O)=NC(=O)Nc1ccc(Nc2ncc(Br)c(Nc3ccc4[nH]cnc4c3)n2)cc1` [Example 16, N-[(4-{[4-(1H-Benzimidazol-5-ylamino)-5-bromopyrimidin-2-yl]amino}phenyl)-carbamoyl]-S,S-dimethylsulphoximide], for which, in test [1], the selectivity profile result was “preferential KDR inhibition”. In addition, the IC50 came out at 140 nM at CDK1/CycB and 330 nM against CDK2/CycE.
With `C[C@@H](O)[C@@H](C)Nc1nc(Nc2ccc(F)c(NC(=O)N=S(C)(C)=O)c2)ncc1Br` [Example 7, N-({5-[(5-Bromo-4-{[(1R,2R)-2-hydroxy-1-methylpropyl]amino}pyrimidin-2-yl)amino]-2-fluorophenyl}carbamoyl)-S,S-dimethylsulphoximide], the IC50 on CDK1/CycB is 10 nM; on CDK2/CycE, 3 nM.
For `C[C@@H](Nc1nc(Nc2cccc(NC(=O)N=S(C)(C)=O)c2)ncc1Br)C(C)(C)O` [Example 1, N-({3-[(5-Bromo-4-{[(R)-2-hydroxy-1,2-dimethylpropyl]amino}pyrimidin-2-yl)amino]phenyl}carbamoyl)-S,S-dimethylsulphoximide], in that order: 24 nM and 9 nM.
As to `COc1ccc(Nc2ncc(Br)c(N[C@H](C)[C@@H](C)O)n2)cc1NC(=O)N=S(C)(C)=O` [Example 10, N-({5-[(5-Bromo-4-{[(1R,2R)-2-hydroxy-1-methylpropyl]amino}pyrimidin-2-yl)amino]-2-methoxyphenyl}carbamoyl)-S,S-dimethylsulphoximide], the IC50 against CDK1/CycB amounted to 26 nM; against CDK2/CycE, 20 nM.
The like results for `C[C@@H](Nc1nc(Nc2ccc(C(=O)N=S(C)(C)=O)cc2)ncc1Br)C(C)(C)O` [Example 19, N-{4-[(5-Bromo-4-{[(R)-2-hydroxy-1,2-dimethylpropyl]amino}pyrimidin-2-yl)amino]benzoyl}S,S-dimethylsulphoximide] were, in that order, 42 nM and 11 nM.
As for `C[C@@H](Nc1nc(Nc2ccc(NC(=O)N=S(C)(C)=O)cc2)ncc1Br)C(C)(C)O` [Example 2, N-({4-[(5-Bromo-4-{[(R)-2-hydroxy-1,2-dimethylpropyl]amino}pyrimidin-2-yl)-amino]phenyl}carbamoyl)-S,S-dimethylsulphoximide], the IC50 came out at 21 nM against CDK1/CycB and 10 nM on CDK2/CycE.
For `C[C@@H](O)[C@@H](C)Nc1nc(Nc2ccc(NC(=O)N=S(C)(C)=O)cc2)ncc1Br` [Example 3, N-({4-[(5-Bromo-4-{[(1R,2R)-2-hydroxy-1-methylpropyl]amino}pyrimidin-2-yl)amino]phenyl}carbamoyl)-S,S-dimethylsulphoximide], in that order: 7 nM and 5 nM.
In the case of `C[C@@H](O)[C@@H](C)Oc1nc(Nc2ccc(C(=O)N=S(C)(C)=O)cc2)ncc1Br` [Example 20, N-{4-[(5-Bromo-4-{[(1R,2R)-2-hydroxy-1-methylpropyl]oxy}pyrimidin-2-yl)amino]benzoyl}-S,S-dimethylsulphoximide], the IC50 was 17 nM at CDK1/CycB and 12 nM on CDK2/CycE.
`COc1cc(Nc2ncc(Br)c(N[C@H](C)[C@@H](C)O)n2)ccc1NC(=O)N=S(C)(C)=O` [Example 11, N-({4-[(5-Bromo-4{[(1R,2R)-2-hydroxy-1-methylpropyl]amino}pyrimidin-2-yl)amino]-2-methoxyphenyl}carbamoyl)-S,S-dimethylsulphoximide]: the IC50 against CDK1/CycB was 46 nM; at CDK2/CycE, 19 nM.

Values taken from patent publication US20080167330A1, “Carbamoylsulphoximides as protein kinase inhibitors” (priority 2006, published 2008).
